The source of these data is ChEMBL document CHEMBL1201862, “PubChem BioAssay data set” (2004).

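Test compounds were applied to cells in 96-well plates for 48 hours at 5 doses. The concentration for 50% growth inhibition is given as GI50.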 The source made the active and inactive calls. Rule as the data show it: active = GI50 up to about 1.1 µM and inactive = higher. Some results are limits rather than exact numbers.

Some test systems named below: 786-0; ACHN; BT-549; DU-145; EKVX; HOP-92; HT-29; K562; KM12; M14; MDA-N; NCI-H226; NCI-H460; NCI-H522; PC-3; RPMI-8226; SF-295; SK-MEL-2; TK-10; UACC-62.
What all share (assay): DTP human tumour cell line panel, 48 h

Take `CC(C)(C)C1(O)C=C(O)C(=O)N1NC(=O)c1ccccc1Nc1ccccc1` (centres undefined): the GI50 was 56.9 µM (inactive) in the test with 786-0; 47.5 µM (inactive) in the test on ACHN; 28 µM (inactive) with BT-549; > 100 µM (inactive) with DU-145; 53.6 µM (inactive) with EKVX; 38.7 µM (inactive) with HOP-92. Besides, the GI50 in the test with HT-29 was 41.1 µM (inactive); in the test with K562, 20.2 µM (inactive); with KM12 it was 40.9 µM (inactive); in the test with M14 it was 76.4 µM (inactive); in the test with MDA-N, 62.2 µM (inactive); in the test with NCI-H226, 48.2 µM (inactive). Besides, the GI50 is 34.4 µM (inactive) in the test on NCI-H460; 16.6 µM (inactive) in the test with NCI-H522; 40 µM (inactive) in the test on PC-3; 54.2 µM (inactive) in the test with RPMI-8226; 25.2 µM (inactive) in the test on SF-295; 24.7 µM (inactive) in the test on SK-MEL-2. Further, the GI50 with TK-10 is 46.3 µM (inactive); in the test with UACC-62 it was 24.8 µM (inactive).

Consider `COc1cc(C2c3[nH]c4ccccc4c3[C@@H](Nc3ccc(C#N)cc3)[C@H]3COC(=O)N23)cc(OC)c1O` (some centres undefined), for which the GI50 in the test on 786-0 was 0.0908 µM (active); in the test with ACHN it was 0.155 µM (active); with BT-549, 0.265 µM (active); in the test on DU-145, 0.252 µM (active); with EKVX, 0.851 µM (active); in the test on HOP-92 it was 0.413 µM (active). The GI50 was 0.3 µM (active) in the test with HT-29; 0.181 µM (active) in the test on K562; 0.243 µM (active) with KM12; 0.344 µM (active) in the test on M14; 0.376 µM (active) with MDA-N; 0.19 µM (active) with NCI-H226. The GI50 is 0.0288 µM (active) with NCI-H460; 0.175 µM (active) with NCI-H522; 0.462 µM (active) with PC-3; 0.144 µM (active) in the test on RPMI-8226; 0.164 µM (active) with SF-295; 0.356 µM (active) with SK-MEL-2. For the same compound, the GI50 in the test on TK-10 was 0.335 µM (active); in the test with UACC-62, 0.114 µM (active).

Consider `O=c1c2ccccc2sc2ccccc12`, for which the GI50 in the test with 786-0, in the test with ACHN, in the test on BT-549, with DU-145, in the test with EKVX and with HOP-92 was > 100 µM (inactive) throughout. Besides, the GI50 in the test with HT-29, with K562, with KM12, in the test with M14, with MDA-N and in the test with NCI-H226 was > 100 µM (inactive) each time. Besides, the GI50 in the test with NCI-H460, with NCI-H522, with PC-3, in the test on RPMI-8226, in the test on SF-295 and in the test on SK-MEL-2 was > 100 µM (inactive) throughout. Besides, the GI50 in the test with TK-10 and in the test with UACC-62 was > 100 µM (inactive) throughout.

Regarding `O=C(CNc1ccccc1[N+](=O)[O-])Nn1cnc2ccc(S(=O)(=O)Nc3ccccc3[N+](=O)[O-])cc2c1=O`, the GI50 in the test with 786-0, in the test on ACHN, in the test on BT-549, in the test on DU-145, in the test on EKVX and with HOP-92 was > 100 µM (inactive) throughout. For the same compound, the GI50 in the test with HT-29, in the test with K562, with KM12, in the test on M14, with MDA-N and in the test with NCI-H226 was > 100 µM (inactive) throughout. In addition, the GI50 in the test on NCI-H460, with NCI-H522, in the test on PC-3, in the test on RPMI-8226, with SF-295 and with SK-MEL-2 was > 100 µM (inactive) each time. In addition, the GI50 in the test on TK-10 and in the test on UACC-62 was > 100 µM (inactive) throughout.

Turning to `CCOC(=O)NN(C(=O)OCC)C(=C(c1ccccc1)N1CCOCC1)N(NC(=O)OCC)C(=O)OCC`, the GI50 with 786-0, in the test on ACHN, in the test on BT-549, with DU-145, in the test on EKVX and in the test with HOP-92 was > 100 µM (inactive) each time. The GI50 with HT-29, in the test with K562, in the test on KM12, in the test on M14, with MDA-N and in the test with NCI-H226 was > 100 µM (inactive) in each case. The GI50 in the test with NCI-H460, in the test with NCI-H522, in the test on PC-3, in the test with RPMI-8226, in the test on SF-295 and in the test on SK-MEL-2 was > 100 µM (inactive) throughout. Further, the GI50 in the test on TK-10 and in the test on UACC-62 was > 100 µM (inactive) in each case.

`CN(/N=C(\C(=O)O)c1ccccc1)C1=NCCCN1`: the GI50 with 786-0 was > 100 µM (inactive); in the test with ACHN, > 100 µM (inactive); in the test on BT-549 it was > 100 µM (inactive); in the test on DU-145, > 100 µM (inactive); in the test on EKVX it was 73.3 µM (inactive); with HOP-92, 80.9 µM (inactive). For the same compound, the GI50 in the test on HT-29, in the test on K562, with KM12, with MDA-N, in the test on NCI-H226 and with NCI-H460 was > 100 µM (inactive) each time. In addition, the GI50 with NCI-H522, in the test on PC-3, in the test on RPMI-8226, with SF-295, with SK-MEL-2 and with TK-10 was > 100 µM (inactive) in each case. Moreover, in the test with UACC-62, the GI50 is > 100 µM (inactive).

In the case of `CC(C)(CCC(C)(C)N1OC1c1ccccc1)N1OC1c1ccccc1` (centres undefined), the GI50 with 786-0 was 54.1 µM (inactive); in the test with ACHN it was 19.8 µM (inactive); in the test on BT-549 it was 38.3 µM (inactive); in the test on DU-145, 88.7 µM (inactive); in the test on HOP-92, 33.4 µM (inactive); with HT-29, 54.7 µM (inactive). Besides, the GI50 with K562 is 13.4 µM (inactive); in the test with KM12, 57.1 µM (inactive); in the test with MDA-N it was 39.9 µM (inactive); with NCI-H226, 76.9 µM (inactive); with NCI-H460, 33 µM (inactive); in the test on NCI-H522, 7.16 µM (inactive). Moreover, the GI50 is 19.9 µM (inactive) in the test with PC-3; 28.9 µM (inactive) in the test with RPMI-8226; 44.5 µM (inactive) in the test on SF-295; 21.5 µM (inactive) in the test on SK-MEL-2; 22.8 µM (inactive) in the test with TK-10; > 100 µM (inactive) in the test on UACC-62.

For the compound `CC(C)(C)c1cc(C2NCCO2)cc(C(C)(C)C)c1O` (centres undefined), the GI50 in the test with 786-0 was 65.8 µM (inactive); with ACHN, > 100 µM (inactive); in the test on BT-549, > 100 µM (inactive); in the test with DU-145 it was > 100 µM (inactive); in the test with EKVX, 77.3 µM (inactive); in the test on HOP-92, 74.6 µM (inactive). For the same compound, the GI50 in the test with HT-29, in the test on K562, in the test on KM12, in the test on MDA-N, in the test on NCI-H226 and in the test on NCI-H460 was > 100 µM (inactive) in each case. Moreover, the GI50 in the test on NCI-H522 is > 100 µM (inactive); in the test with PC-3, 82 µM (inactive); in the test with RPMI-8226, > 100 µM (inactive); in the test with SF-295, 34.6 µM (inactive); in the test with SK-MEL-2, 35.2 µM (inactive); in the test with TK-10, 37.1 µM (inactive). The GI50 in the test with UACC-62 was > 100 µM (inactive).

In the case of `S=c1[nH]c(Cl)cc2nc(Cl)cn12`, the GI50 with 786-0 is 3.72 µM (inactive); in the test on ACHN it was 8.61 µM (inactive); in the test on BT-549 it was 9.89 µM (inactive); with DU-145, 5.01 µM (inactive); with EKVX, 2.25 µM (inactive); in the test with HOP-92 it was 17.5 µM (inactive). For the same compound, the GI50 is 4.66 µM (inactive) in the test on HT-29; 4.14 µM (inactive) in the test on KM12; 4.24 µM (inactive) with M14; 1.98 µM (inactive) with MDA-N; 15 µM (inactive) in the test on NCI-H226; 13.6 µM (inactive) in the test with NCI-H460. The GI50 in the test with NCI-H522 was 1.57 µM (inactive); in the test with PC-3, 3.94 µM (inactive); in the test on RPMI-8226, 16.1 µM (inactive); with SF-295, 2.88 µM (inactive); in the test on SK-MEL-2, 3.85 µM (inactive); in the test on TK-10, 7.5 µM (inactive). The GI50 in the test with UACC-62 is 6.93 µM (inactive).

As for `OCC1OC(n2cnc3c2NC=NC[C@H]3O)CC1O` (some centres undefined), the GI50 with 786-0 was 455 µM (inactive); in the test on ACHN it was 400 µM (inactive); in the test on BT-549, > 500 µM (inactive); with DU-145 it was 324 µM (inactive); in the test with EKVX, 489 µM (inactive); with HOP-92, 398 µM (inactive). Further, the GI50 in the test with K562 was 469 µM (inactive); with KM12, 495 µM (inactive); with M14, 418 µM (inactive); in the test on MDA-N it was > 500 µM (inactive); in the test on NCI-H226, 484 µM (inactive); in the test on NCI-H460, 418 µM (inactive). Moreover, the GI50 with NCI-H522 is 444 µM (inactive); in the test with PC-3, > 500 µM (inactive); in the test on RPMI-8226, 478 µM (inactive); with SF-295, 448 µM (inactive); in the test with SK-MEL-2, 497 µM (inactive); with TK-10 it was > 500 µM (inactive). In the test on UACC-62, the GI50 is 415 µM (inactive).
